How the values were obtained:
[1] = system: CSF proteome (Olink Explore 384 panels, 1463 analytes); experiment: Olink proteomics of cerebrospinal fluid of MS patients under therapy; type: in vivo, human
Procedure: In the present study, a platform technology (Olink® Proteomics) was used. This test utilizes a high throughput, multiplex immunoassay technology that enables the measurement of over 1000 proteins from small sample volumes. See e.g., Assarsson E, et al. PLoS One 2014; 9(4): e95192; and Cui M, et al. Lab Invest 2022, each of which is incorporated by reference in its entirety. Two sets of subjects were analyzed. First, Olink proteomics technology was used to profile the baseline CSF proteome of untreated MS patients. Second, alterations to the MS CSF proteome upon therapeutic intervention with either a B cell depleting agent alone or after transitioning to tolebrutinib, a brain penetrant Bruton's tyrosine kinase (BTK) inhibitor, was evaluated.
To establish a baseline of proteomic expression, an Olink proteomics assay was performed on the CSF of multiple groups of subjects, including healthy volunteers (HV), HTLV 1 associated myelopathy/tropical spastic paraparesis (HAM/TSP) patients, radiologically isolated syndrome (RIS) patients, clinically isolated syndrome (CIS) patients, and multiple sclerosis (MS) patients, including patients with relapsing remitting MS (RRMS), secondary progressive MS (SPMS), and primary progressive MS (PPMS). CSF samples were collected from 31 healthy volunteers and 71 treatment-naïve subjects with MS. The CSF proteome was examined using the Cardiometabolic, Inflammation, Neurology, and Oncology Olink Explore 384 panels (1463 analytes total).
Next, it was examined whether treatment with different therapies for patients having MS would result in differential proteome expression. A group of subjects with MS were treated either with an anti-CD20 antibody alone or with an anti-CD20 antibody and then transitioning to tolebrutinib, and their proteome was examined using similar techniques described in Example 1B. More specifically, the cohort of MS patients in this example included untreated patients, patients treated with a B cell depleting agent for at least six months, and patients 12 weeks and 48 weeks after transitioning from a B cell depletion therapy to tolebrutinib in a clinical trial (NCT04742400).
Several participants (age [mean±standard deviation]: 48.2±7.9 years; sex: 2 female) who had been treated with ocrelizumab for >6 months (median: 3.2 years; range: 1.8-4.0 years) were included. Participants had no signs of acute focal inflammation based on magnetic resonance imaging. CSF was collected before baseline (within 6 months since last ocrelizumab infusion), and at 12 and 48 weeks after transitioning to tolebrutinib 60 mg.
The data were sorted into two sets of comparisons. The comparisons include (1) subjects treated with an anti-CD20 antibody compared to untreated MS subjects (FIG. 3) and (2) subjects treated with tolebrutinib after transitioning from an anti-CD20 antibody compared to subjects treated with an anti-CD20 antibody (FIG. 4A).

CXCL13 = CXCL13 protein level in CSF by MSD (meso scale discovery); type: in vivo, human; details: MSD (FIG. 6); twelve week and forty-eight week course of tolebrutinib vs untreated, HAM/TSP or continued ocrelizumab
Source text: HV: health volunteer; HAM/TSP: HTLV-1 associated myelopathy/tropical spastic paraparesis without treatment; MS_untreated: subjects with MS but have not been treated; MS_ocrelizumab: subjects treated only with an anti-CD20 antibody; MS_tolebrutinib: subjects treated with daily doses of tolebrutinib.
Similarly, this decrease was seen when comparing subjects who continued treatment with the anti-CD20 antibody (ocrelizumab) with subjects treated with a twelve week and forty-eight week course of tolebrutinib. FIGS. 4D, 5, and 6.

[2] = CSF, 48 weeks after transitioning from anti-CD20 antibody to tolebrutinib 60 mg vs anti-CD20 antibody
[3] = CSF, 48 weeks post-transition to tolebrutinib vs anti-CD20
[4] = CSF, subjects treated with anti-CD20 antibody for at least six months vs untreated MS subjects

What does the source list for `C=CC(=O)N1CCC[C@@H](n2c(=O)n(-c3ccc(Oc4ccccc4)cc3)c3c(N)nccc32)C1` [tolebrutinib, (R)-1-(1-acryloylpiperidin-3-yl)-4-amino-3-(4-phenoxyphenyl)-1H-imidazo[4,5-c]pyridin-2(3H)-one]?
example biomarkers NEFL, CXCL13, CXCL10, CD27, CCL4 and CCL3 in CSF ([1]; 48 weeks after transitioning from anti-CD20 therapy to tolebrutinib): disease-reversed proteins; ANGPT1 Fold-Change (48wkBTKi. vs. antiCD20) [1, 2]: −1.658; ANGPTL2 Fold-Change (48wkBTKi. vs. antiCD20) [1, 2]: −3.266; ATXN10 Fold-Change (48wkBTKi. vs. antiCD20) [1, 2]: −6.437; CCL3 Fold-Change (48wkBTKi. vs. antiCD20) [1, 2]: −2.142; CCL4 Fold-Change (48wkBTKi. vs. antiCD20) [1, 2]: −2.092; CCL8 Fold-Change (48wkBTKi. vs. antiCD20) [1, 2]: −2.68; CCL11 Fold-Change (48wkBTKi. vs. antiCD20) [1, 2]: −1.9597; CCN4 Fold-Change (48wkBTKi. vs. antiCD20) [1, 2]: −1.611; CD4 Fold-Change (48wkBTKi. vs. antiCD20) [1, 2]: −1.706; CD8A Fold-Change (48wkBTKi. vs. antiCD20) [1, 2]: −1.75; CD38 Fold-Change (48wkBTKi. vs. antiCD20) [1, 2]: −2.035; CD276 Fold-Change (48wkBTKi. vs. antiCD20) [1, 2]: −2.173; CD302 Fold-Change (48wkBTKi. vs. antiCD20) [1, 2]: −1.5791; CDH3 Fold-Change (48wkBTKi. vs. antiCD20) [1, 2]: −2.293; CDNF Fold-Change (48wkBTKi. vs. antiCD20) [1, 2]: −2.1; CGREF1 Fold-Change (48wkBTKi. vs. antiCD20) [1, 2]: −1.535; CHRDL1 Fold-Change (48wkBTKi. vs. antiCD20) [1, 2]: −2.236; CLEC4C Fold-Change (48wkBTKi. vs. antiCD20) [1, 2]: −1.714; CLUL1 Fold-Change (48wkBTKi. vs. antiCD20) [1, 2]: −2.021; CTRC Fold-Change (48wkBTKi. vs. antiCD20) [1, 2]: −2.869; CXCL1 Fold-Change (48wkBTKi. vs. antiCD20) [1, 2]: −3.054; CXCL8 Fold-Change (48wkBTKi. vs. antiCD20) [1, 2]: −1.605; CXCL10 Fold-Change (48wkBTKi. vs. antiCD20) [1, 2]: −3.598; DRAXIN Fold-Change (48wkBTKi. vs. antiCD20) [1, 2]: −2.047; HS3ST3B1 Fold-Change (48wkBTKi. vs. antiCD20) [1, 2]: −1.708; HYOU1 Fold-Change (48wkBTKi. vs. antiCD20) [1, 2]: −1.676; IL5RA Fold-Change (48wkBTKi. vs. antiCD20) [1, 2]: −1.716; IL11 Fold-Change (48wkBTKi. vs. antiCD20) [1, 2]: −6.841; KAZALD1 Fold-Change (48wkBTKi. vs. antiCD20) [1, 2]: −1.548; KRT18 Fold-Change (48wkBTKi. vs. antiCD20) [1, 2]: −1.6528; LPL Fold-Change (48wkBTKi. vs. antiCD20) [1, 2]: −1.744; LTA Fold-Change (48wkBTKi. vs. antiCD20) [1, 2]: −1.552; MATN3 Fold-Change (48wkBTKi. vs. antiCD20) [1, 2]: −1.889; MFAP5 Fold-Change (48wkBTKi. vs. antiCD20) [1, 2]: −2.536; MSLN Fold-Change (48wkBTKi. vs. antiCD20) [1, 2]: −2.068; MZB1 Fold-Change (48wkBTKi. vs. antiCD20) [1, 2]: −1.968; NEFL Fold-Change (48wkBTKi. vs. antiCD20) [1, 2]: −3.42; NPDC1 Fold-Change (48wkBTKi. vs. antiCD20) [1, 2]: −2.471; NPTX1 Fold-Change (48wkBTKi. vs. antiCD20) [1, 2]: −2.103; NPY Fold-Change (48wkBTKi. vs. antiCD20) [1, 2]: −1.797; NTproBNP Fold-Change (48wkBTKi. vs. antiCD20) [1, 2]: −2.314; NUB1 Fold-Change (48wkBTKi. vs. antiCD20) [1, 2]: −1.624; NUCB2 Fold-Change (48wkBTKi. vs. antiCD20) [1, 2]: −2.551; PDCD5 Fold-Change (48wkBTKi. vs. antiCD20) [1, 2]: −2.511; PRL Fold-Change (48wkBTKi. vs. antiCD20) [1, 2]: −3.416; ROBO1 Fold-Change (48wkBTKi. vs. antiCD20) [1, 2]: −1.511; RTBDN Fold-Change (48wkBTKi. vs. antiCD20) [1, 2]: −2.625; SCG2 Fold-Change (48wkBTKi. vs. antiCD20) [1, 2]: −2.959; SCG3 Fold-Change (48wkBTKi. vs. antiCD20) [1, 2]: −2.2848; SPRY2 Fold-Change (48wkBTKi. vs. antiCD20) [1, 2]: −1.907; STC1 Fold-Change (48wkBTKi. vs. antiCD20) [1, 2]: −1.863; TDGF1 Fold-Change (48wkBTKi. vs. antiCD20) [1, 2]: −4.457; TIMP4 Fold-Change (48wkBTKi. vs. antiCD20) [1, 2]: −1.776; TNFRSF6B Fold-Change (48wkBTKi. vs. antiCD20) [1, 2]: −2.999; TNFRSF13B Fold-Change (48wkBTKi. vs. antiCD20) [1, 2]: −2.063; WFIKKN2 Fold-Change (48wkBTKi. vs. antiCD20) [1, 2]: −2.432; WIF1 Fold-Change (48wkBTKi. vs. antiCD20) [1, 2]: −1.994; share of disease-associated proteins reverting towards levels observed in healthy volunteers ([1]; CSF, 48 weeks after transitioning to tolebrutinib from a B-cell depleting therapy): 47%; number of proteins with decreased abundance [1, 3]: 60 proteins; number of proteins with increased abundance [1, 3]: 0 proteins; proteins with increased abundance in subjects with MS (relative to HV) that were reversed ([1]; CSF, 48 weeks post-transitioning to tolebrutinib relative to anti-CD20 baseline levels): 30 proteins; CXCL10 in CSF ([1]; Olink, subjects who switched from ocrelizumab to tolebrutinib (12 and 48 weeks)): downregulated; CXCL13 in CSF ([1]; Olink, subjects who switched from ocrelizumab to tolebrutinib, twelve week and forty-eight week course): downregulated; CXCL13 in CSF (CXCL13): decrease

For “anti-CD20 antibody: B cell depleting agent; participants had been treated with ocrelizumab, humanized monoclonal antibody directed against the CD20 antigen”, which “CD6 Fold-change (antiCD20. vs. Untreated)” value [1, 4] is on record?
Its value is −1.8.

And the “CD22 Fold-change (antiCD20. vs. Untreated)” value [1, 4]?
Its value is −2.442.

What about the “FCRL1 Fold-change (antiCD20. vs. Untreated)” value [1, 4] of the same compound?
The value was −2.744.

And the “SORD Fold-change (antiCD20. vs. Untreated)” value [1, 4]?
Its value is 2.045.

From patent US20250354998A1, “METHODS OF DIAGNOSING AND TREATING MULTIPLE SCLEROSIS BY DETECTING A BIOMARKER IN THE CEREBROSPINAL FLUID” (Principia Biopharma Inc., priority 2023, published 2025)
